According to publication PMC6778101 (Nature Communications, 2019):
Like-named read-outs stand apart in the source and are kept apart here.

What was measured:
E. coli K-12 BW25113 = test: microbe, parasite or virus in culture; format: cell-based, Escherichia coli
Source text: Unless otherwise indicated, Minimal Salt (MS) medium was used in all experiments, including the laboratory evolution experiments. In line with previous, methodologically relevant laboratory evolution studies, the physical conditions (including the medium) were the same during the course of laboratory evolution and all forthcoming assays on the resulting resistant lines (e.g. MIC measurements). We previously optimized this medium for studying AMPs (1 g L^−1 (NH4)2SO4, 3 g L^−1 KH2PO4 and 7 g L^−1 K2HPO4 supplemented with 0.1 mM MgSO4, 0.54 µg mL^−1 FeCl3, 1 µg mL^−1 thiamine hydrochloride, 0.2% Casamino acids and 0.2% glucose)[19]. This medium is highly controlled and provides a reproducible environment for experimental evolution experiments. All components were obtained from Sigma-Aldrich.
(§1) MICs were determined using a standard serial broth dilution technique. Briefly, 11-step serial dilutions were prepared in 96-well microtiter plates with three replicates per strain and antimicrobial compound. Each experiment was repeated at least twice. 5 × 10^5 cells/mL were inoculated into each well, and the plates were incubated at 30 °C in case of E. coli K-12 BW25113, and its antibiotic and AMP-adapted lines, or 37 °C in case of the other bacterial species. […] Cell growth was monitored by measuring the optical density (OD600 value, Biotek Synergy 2 microplate reader was used for this purpose). […] Relative MIC was calculated as follows: MICrelative = MICevolved/MICcontrol.

[1] = tested on: E. coli K-12 BW25113 bearing the metagenomic plasmid library; test: Functional metagenomic screen of a soil library, gradient plate selection; format: cell-based, Escherichia coli; conditions: soil metagenomic library, 1.5–5 kb fragments, gradient plate, 30 °C, 24 h
[2] = tested on: E. coli K-12 BW25113 carrying ASKA plasmids; test: microbe, parasite or virus in culture; format: cell-based, Escherichia coli; conditions: for MIC: Escherichia coli; for MIC / MIC value of E. coli K-12 BW25113 carrying the empty plasmid of the ASKA library / MIC value of E. coli K-12 BW25113 carrying the pooled plasmids of the ASKA library: MS medium + 10 µg mL−1 CHL + 500 µM IPTG, 5 × 10^5 cells, 16–18 h, 37 °C
Source text: Bacterial gene amplification generates extensive genetic variation that can provide drug resistance[37],[38]. As gene amplification events tend to be genetically unstable and reduce bacterial fitness, they are transient in nature. Using the ASKA library, which comprises each E. coli ORF cloned into an expression vector[40], we have conducted a global survey to evaluate whether artificially amplified genes provide resistance to any of the 14 AMPs and 11 antibiotics tested. As chloramphenicol (CHL) was used as a selection marker for the ASKA plasmid, this antibiotic was not tested in this screen. E. coli K-12 BW25113 cells were transformed with the pooled plasmids of the ASKA library, and the genetically mixed populations were exposed to increasing levels of AMP or antibiotic stresses, respectively. In all cases, the employed AMP or antibiotic dosages were above the MIC of the wild type. For each drug, we identified the MIC provided in the pooled ASKA plasmid library, and compared it to the MIC of the wild-type strain carrying the empty ASKA plasmid.
The ASKA library (a complete set of E. coli K-12 ORF archive) includes every E. coli ORF cloned into an expression vector (pCA24N)[65]. Prior to screening, the ASKA plasmid collection was pooled and transformed into E. coli K-12 BW25113 strain[66]. The plasmid pool was created by pooling an equal aliquot of cells, each carrying different members of the ASKA library, followed by plasmid miniprep. Next, the plasmid pool was electroporated into E. coli K-12 BW25113 competent cells. […] For the MICs measurements 500 000 cells were inoculated in each well which represents ~100 times coverage of each library member. […] Prior to the measurements the cell population containing the pooled overexpression library or the control strain containing the empty vector were grown in three replicates in LB medium supplemented with 20 µg/mL CHL. As the culture reached high density (i.e., OD600 > 0.8), expression of the plasmid was induced by 50 µM IPTG for 1 h. Following induction, 5 × 10^5 bacterial cells were inoculated in three replicates into each well of the 96-well plate and incubated for 16–18 h at 37 °C. Following incubation the MIC values were determined by measuring optical densities in a plate reader (Biotek Synergy).

[3] = tested on: E. coli K-12 BW25113 carrying single mutations; test: MIC change in single-mutation strains (basS L194R, mlaD a342del, waaY M1†); format: cell-based, Escherichia coli; conditions: mutations inserted individually into E. coli K-12 BW25113
A. baumannii ATCC 17978 = format: cell-based, Acinetobacter baumannii; conditions: starting strain; broth dilution, MS medium, 37 °C, 18 h
Procedure: (§2) Unless otherwise indicated, we used E. coli K-12 BW25113 in all high-throughput experiments. To investigate the impact of mutation rate on evolution of AMP resistance, we initiated laboratory evolution with a mutator strain E. coli mutD5 that carries mutations in the dnaQ gene (L73W and A164V).
(§3) MICs were determined using a standard serial broth dilution technique. Briefly, 11-step serial dilutions were prepared in 96-well microtiter plates with three replicates per strain and antimicrobial compound. Each experiment was repeated at least twice. 5 × 10^5 cells/mL were inoculated into each well, and the plates were incubated at 30 °C in case of E. coli K-12 BW25113, and its antibiotic and AMP-adapted lines, or 37 °C in case of the other bacterial species. Plates were shaken at 300 r.p.m. during incubation for 24 and 18 h, respectively. Cell growth was monitored by measuring the optical density (OD600 value, Biotek Synergy 2 microplate reader was used for this purpose). […] Relative MIC was calculated as follows: MICrelative = MICevolved/MICcontrol.

E.coli K-12 BW25113 = format: cell-based, Escherichia coli; conditions: for MIC (freshly prepared AMP): plates inoculated immediately; for MIC (pre-incubated AMP): plates pre-incubated 72 hours before inoculation
Procedure: as §3
Supplementary Table 7- Effect of incubation time on the minimum inhibitory concentration (MIC) of AMPs. We tested whether the prolonged incubation time can affect the MIC of AMPs. To test this, two sets of AMP containing MIC plates were prepared in parallel. The first set was immediately inoculated with E.coli K-12 BW25113, while the second set was pre-incubated 72 hours before inoculation with the […]
observed in the MIC between freshly prepared and pre-incubated plates. […]

E. coli ATCC 25922 = format: cell-based, Escherichia coli; conditions: starting strain; broth dilution, MS medium, 37 °C, 18 h
Procedure: as §2, §3

[4] = tested on: E. coli ATCC 25922, S. enterica LT2, K. pneumoniae ATCC 10031, A. baumannii ATCC 17978; test: Laboratory evolution in pathogenic bacteria, statements for all four pathogens together; format: cell-based
Source text: The tested pathogens initially sensitive to the AMPs and the antibiotics included Escherichia coli (ATCC® 25922™) (abbreviated as E. coli ATCC 25922), Salmonella enterica subsp. enterica serovar Typhimurium LT2 (abbreviated as S. enterica LT2), Klebsiella pneumoniae subsp. pneumoniae (Schroeter) Trevisan (ATCC® 10031™) (abbreviated as K. pneumoniae ATCC 10031) and Acinetobacter baumannii Bouvet and Grimont (ATCC® 17978™) (abbreviated as A. baumannii ATCC 17978).
The evolutionary protocol was designed to avoid population extinction and to ensure that populations with the highest level of resistance were propagated further. Starting with a subinhibitory drug concentration (Supplementary Data 8), resulting in ~50% growth inhibition, 10 parallel populations per drug were allowed to grow in Minimal Salts medium for 72 h and 300 r.p.m. E. coli K-12 BW25113 and E. coli mutD5 populations were incubated at 30 °C, while E. coli ATCC 25922, S. enterica LT2, K. pneumonia ATCC 10031, and A. baumannii ATCC 17978 were incubated at 37 °C. […] Prior to each transfer, cell growth was monitored by measuring the optical density at 600 nm (OD600 value, Biotek Synergy 2 microplate reader). Only populations with the highest drug concentration (and reaching OD600 > 0.2) were selected for further evolution. A chess-board layout was used on the plate to monitor potential cross-contamination events. […] E. coli mutD5 was adapted to TPII, also in 10 parallel evolving populations.
as §1, with “twice.” for “twice. 5 × 10^5 cells/mL were inoculated into each well, and the plates were incubated at 30 °C in case of E. coli K-12 BW25113, and its antibiotic and AMP-adapted lines, or 37 °C in case of the other bacterial species.”

K. pneumoniae ATCC 10031 = format: cell-based, Klebsiella pneumoniae; conditions: starting strain; broth dilution, MS medium, 37 °C, 18 h
Procedure: as §2, §3

S. enterica LT2 = format: cell-based, Salmonella enterica subsp. enterica serovar Typhimurium; conditions: starting strain; broth dilution, MS medium, 37 °C, 18 h
Procedure: as §2, §3

[5] = Escherichia coli, BW25113, 24 h, read-out: MIC
[6] = BW25113, Replicate 1, read-out: MIC value of E. coli K-12 BW25113 carrying the empty plasmid of the ASKA library
[7] = BW25113, Replicate 1, read-out: MIC value of E. coli K-12 BW25113 carrying the pooled plasmids of the ASKA library
[8] = BW25113, Replicate 2, read-out: MIC value of E. coli K-12 BW25113 carrying the empty plasmid of the ASKA library
[9] = BW25113, Replicate 2, read-out: MIC value of E. coli K-12 BW25113 carrying the pooled plasmids of the ASKA library
[10] = BW25113, Replicate 3, read-out: MIC value of E. coli K-12 BW25113 carrying the empty plasmid of the ASKA library
[11] = BW25113, Replicate 3, read-out: MIC value of E. coli K-12 BW25113 carrying the pooled plasmids of the ASKA library
[12] = starting wild-type strain of the evolution experiment, broth dilution, MS medium, 5 × 10^5 cells/mL, 30 °C, 24 h, MIC = OD600 < 0.05
[13] = time allowed for bacterial growth 24 hours
[14] = time allowed for bacterial growth 48 hours
[15] = time allowed for bacterial growth 72 hours

O=C(N[C@H](CO)[C@H](O)c1ccc([N+](=O)[O-])cc1)C(Cl)Cl [CHL, Chloramphenicol]
MIC (E. coli K-12 BW25113; [5]): 6.9 mg/L
Number of resistant contig [1]: 7

NC[C@H]1O[C@H](O[C@H]2[C@H](O)[C@@H](O[C@H]3O[C@H](CO)[C@@H](O)[C@H](N)[C@H]3O)[C@H](N)C[C@@H]2N)[C@H](N)C[C@@H]1O [TOB, Tobramycin]
MIC [2, 6]: 1.49 mg/L
MIC [2, 7]: 2.15 mg/L
MIC [2, 8]: 1.24 mg/L
MIC [2, 9]: 2.58 mg/L
MIC [2, 10]: 1.49 mg/L
MIC [2, 11]: 2.58 mg/L
MIC (E. coli K-12 BW25113; [5]): 3.4 mg/L
Number of resistant contig [1]: 13

COc1cc(Cc2cnc(N)nc2N)cc(OC)c1OC [TRM, Trimethoprim]
increment in resistance level by the pooled ASKA library [2]: 32 fold
MIC [2, 6]: 2 mg/L
MIC [2, 7]: 128 mg/L
MIC [2, 8]: 2 mg/L
MIC [2, 9]: 64 mg/L
MIC [2, 10]: 2 mg/L
MIC [2, 11]: 64 mg/L
MIC (E. coli K-12 BW25113; Escherichia coli, BW25113, 24 h): 5.2 mg/L
Number of resistant contig [1]: 11

GIINTLQKYYRVRGGRAVLSLPKEEQIGKSTRGRKRRKK [HBD3, Human beta-defensin-3, clinically relevant antimicrobial peptide with human origin]
resistance conferred by single mutations basS L194R, mlaD a342del, waaY M1† (in words) [3]: conferred resistance
MIC value of E. coli K-12 BW25113 carrying the empty plasmid of the ASKA library ([2]; Replicate 1): 195.36 mg/L
MIC value of E. coli K-12 BW25113 carrying the pooled plasmids of the ASKA library ([2]; Replicate 1): 405.09 mg/L
MIC value of E. coli K-12 BW25113 carrying the empty plasmid of the ASKA library ([2]; Replicate 2): 195.36 mg/L
MIC value of E. coli K-12 BW25113 carrying the pooled plasmids of the ASKA library ([2]; Replicate 2): 337.58 mg/L
MIC value of E. coli K-12 BW25113 carrying the empty plasmid of the ASKA library ([2]; Replicate 3): 281.31 mg/L
MIC value of E. coli K-12 BW25113 carrying the pooled plasmids of the ASKA library ([2]; Replicate 3): 281.31 mg/L
MIC (E. coli K-12 BW25113; [12]): 1500 mg/L

KTKKKFLKKT [PXB, Polymyxin B, AMP used as a last-resort drug in the treatment of multidrug-resistant Gram-negative bacterial infections; from Sigma-Aldrich]
MIC (A. baumannii ATCC 17978): 2 mg/L
MIC (freshly prepared AMP) (E.coli K-12 BW25113; [13]): 4.2 mg/L
MIC (freshly prepared AMP) (E.coli K-12 BW25113; [14]): 4.2 mg/L
MIC (freshly prepared AMP) (E.coli K-12 BW25113; [15]): 4.2 mg/L
MIC (pre-incubated AMP) (E.coli K-12 BW25113; [13]): 5 mg/L
MIC (pre-incubated AMP) (E.coli K-12 BW25113; [14]): 5 mg/L
MIC (pre-incubated AMP) (E.coli K-12 BW25113; [15]): 5 mg/L
MIC value of E. coli K-12 BW25113 carrying the empty plasmid of the ASKA library ([2]; Replicate 1): 3.18 mg/L
MIC value of E. coli K-12 BW25113 carrying the pooled plasmids of the ASKA library ([2]; Replicate 1): 3.18 mg/L
MIC value of E. coli K-12 BW25113 carrying the empty plasmid of the ASKA library ([2]; Replicate 2): 3.18 mg/L
MIC value of E. coli K-12 BW25113 carrying the pooled plasmids of the ASKA library ([2]; Replicate 2): 3.18 mg/L
MIC value of E. coli K-12 BW25113 carrying the empty plasmid of the ASKA library ([2]; Replicate 3): 3.18 mg/L
MIC value of E. coli K-12 BW25113 carrying the pooled plasmids of the ASKA library ([2]; Replicate 3): 3.18 mg/L
MIC (E. coli ATCC 25922): 6 mg/L
resistance after laboratory evolution in pathogens (in words) ([4]; all four pathogenic species): a high level of PXB-resistance has emerged in all pathogens studied
increment of resistance level compared to the corresponding wild-type strain ([4]; certain lines, highest value over the four pathogens): ≤ 20,000 times
MIC (E. coli K-12 BW25113; [12]): 2.5 mg/L
MIC (K. pneumoniae ATCC 10031): 2 mg/L
MIC (S. enterica LT2): 8 mg/L
